Experimental data taken from US20180110742A1, “NMDA ANTAGONISTS FOR THE TREATMENT OF MENTAL DISORDERS WITH OCCURRENCE OF […]/OR IMPULSIVE BEHAVIOR” (ICM (INSTITUT DU CERVEAU ET DE LA MOELLE EPINIERE), priority 2015, published 2018).

Assays:
[1] = test system: rhesus monkeys; assay: Delayed saccade oculomotor paradigm (inhibition of premature saccades) after i.m. ketamine or saline; type: in vivo, rhesus monkey
Text: FIG. 2 is a diagram showing the sequence of events. The trial started with the appearance of a fixation cross for a randomized duration followed by the appearance of two empty ‘boxes’, one at the center of the screen and at a 9-deg eccentric position. After the appearance of the two boxes, a target was flashed in the central one for 50 milliseconds. Extinction of the central target marked the beginning of the delay period that could last either 400, 900, 1400 or 1900 ms. At the end of the delay period, a target appeared for 50 ms in the eccentric box and the subject had to make a saccade to the eccentric box within a 400 ms grace period.
The experimental paradigm was designed to create a conflict between the urge to make a saccade to the peripheral box and the necessity to maintain fixation until the eccentric target appeared (FIG. 2). This required a strong inhibition of premature saccades before the appearance of the eccentric target.
A total of 14104 saccades were analyzed in the three monkeys of the present study (L, S, Y). […] Positive values represent saccades occurring after target onset. We classified saccades as visually-guided for latencies longer than 100 ms. Latencies shorter than 100 ms represent premature (anticipatory) saccades. It can be observed that in the control condition (dashed curve on FIG. 3A), average saccadic latencies tended on average to decrease with increasing delay duration, more premature saccades occurring during long delays. […] However, a significant interaction between injected product (placebo or ketamine) and delay duration was found (F3; 6.012=8.195; P=0.015). […] Saccades in short delay trials (400 or 900 ms delays) were less affected than saccades when the delay was longer (1400 or 1900 ms). This influence of ketamine on movement latency was reproducible between monkeys.
Three monkeys participated in the present study (referred to as L, S, Y). Apparatus
Subjects sat in darkness, facing a CRT screen, which presented stimuli at a frequency of 60 Hz. An EyeLink 1000 infrared eye tracking system (SR Research, Mississauga, Ontario) was used to record movements of the right eye at 1 KHz. All experiments were run with homemade stimulus generation software based on a real time Linux kernel (Xenomaï). Stimulus display and oculomotor data collection were synchronized on a frame-by-frame basis. Saccades were detected offline in MATLAB (MathWorks, Natic, Mass.) with a velocity threshold of 30 deg/sec.
Each trial started with an initial fixation period (referred to as ‘initial fixation’), with a small cross (0.7 deg) appearing on the CRT screen for a random duration (850±100 ms; see ‘X’ on FIG. 1). At the end of this random delay, two empty square ‘boxes’ appeared on the screen (1.4×1.4 deg), one in the center of the screen and one 9 deg eccentric, randomly to the right or to the left. […] Afterwards, a square target (1.4×1.4 deg) was flashed in the central box for 50 ms. Extinction of the initial target indicated to subjects the beginning of the delay period. Subjects were required to hold on fixation of the central box until another target (1.4×1.4 deg) was briefly presented for 50 ms in the eccentric box. In the variable fore period design, the delay period could take one of 4 different values with the same probability: 400 ms, 900 ms, 1400 ms and 1900 ms. In order to receive reward, subjects had to maintain fixation of the central box and wait for the appearance of the eccentric target. This required a strong inhibition of early saccades before the appearance of the eccentric target. Early saccades were not rewarded. This paradigm was designed to test inhibition during the delay period.
Each experimental session started with a block of 200 trials before injection to measure the baseline saccadic latency on a day-by-day basis. On a randomly selected day ketamine (0.250 mg/kg) was injected i.m. or a placebo saline solution (NaCl 0.9%) of the same volume (0.3 ml). […]

[2] = higher doses, e.g. 0.6 mg/kg; cited from earlier work
[3] = test system: supplementary eye field (SEF) neurons; assay: Single-neuron recordings of saccade-related and fixation neurons during the saccade task; type: in vivo, rhesus monkey; conditions: 0.25 mg/kg i.m.; for average neuronal activity of fixation units/neurons: delay and saccadic period, 0.25 mg/kg
Text: FIG. 9 is a graph showing the average neuronal activity (spike density) of 30 movement-related supplementary eye field (SEF) neurons during fixation (negative time), delay (between the two vertical dashed lines) and after saccade appearance (after the second dashed lined). Group data. A: delay duration: 400 ms. B: delay duration: 900 ms. C: delay duration: 1400 ms. D: delay duration: 1900 ms. […] This can be associated with the decrease of premature saccades.
FIG. 10 is a graph showing the average neuronal activity of “fixation” units during fixation, delay and saccadic period. Group data. A: delay duration: 400 ms. B: delay duration: 900 ms. C: delay duration: 1400 ms. D: delay duration: 1900 ms. […] This could be related to the enhanced inhibition capacity and reduction of impulsive behavior observed.
Neuronal activity of two animals was recorded on neurons with phasic discharge during the saccade (saccadic-relayed neurons, FIG. 9) and neurons with tonic activity when the eye is immobile (fixation neurons, FIG. 10). Average activity of 30 neurons is shown in the control condition (no ketamine) and after injection of 0.25 mg/kg ketamine i.m.
One male and one female rhesus monkey were used in this study. All procedures were approved by the Institutional Animal Care and Use Committee and were in compliance with the guidelines set forth in the United States Public Health Service Guide for the Care and Use of Laboratory Animals.
A celux recording chamber (Crist Instruments, Hagerstown, Md.) was positioned at 24 mm anterior in Horsley-Clark stereotaxic coordinates and centered on the midline of the brain in both monkeys. At the completion of the surgeries, animals were returned to their home cages. Antibiotics and analgesics were administered as needed during the recovery period under the direction of a veterinarian.
The monkeys were seated in a primate chair with their head restrained for the duration of the testing sessions. They were trained to execute the behavioral task described above for liquid reward and were allowed to work to satiation. Records of each animal's weight and health status were kept, and supplemental water was given as necessary. The monkeys had their heads immobilized and were trained to pursue spots of light projected on a tangent screen in front of them.
To record neuronal activity, a single tungsten microelectrode (FHC, Bowdoinham, Me.) of approximately 6 MΩ impedance at 1 kHz was lowered into the cortex through the dura using a Narishige microdrive. The position of the electrode was determined using a grid system (Crist et al., 1988). Action potentials of single units were isolated using an on-line spike-sorting system that uses a template-matching algorithm (Plexon Inc). A pulse was generated each time an action potential was detected and stored with a 1 ms resolution.
To analyze the time course of neuronal activity, spike trains were convolved with a Gaussian probability density in steps of 1 ms to generate the spike-density function (Richmond et al., 1987). The SD of the Gaussian function was set to 20 ms. The average spike density in each experimental condition was computed from all trials in which subjects pursued the target until the end of its trajectory.

[4] = Total of monkeys L, S, Y, 0.25 mg/kg i.m.

With `CNC1(c2ccccc2Cl)CCCCC1=O` (stereo not drawn) [ketamine] the “spontaneous nystagmus or centripetal drift of the eye” value ([1]; 0.25 mg/kg) was “did not evoke spontaneous nystagmus or centripetal drift of the eye”, the latency variance ([1]; 0.25 mg/kg i.m., as a function of delay duration) was “latency variance decreased” and the “reduction of premature saccades by delay duration” value ([1]; 0.25 mg/kg i.m., delay durations 400-1900 ms) was “particularly strong for long delay durations (1400 ms and 1900 ms)”. For the same compound, the “saccadic latency as a function of delay duration” value ([1]; 0.25 mg/kg i.m., delays 400, 900, 1400, 1900 ms, group data) was “prolonged saccadic latencies differently with increasing delay duration”, the “saccadic latency (all saccades)” value ([1]; 0.25 mg/kg i.m., group data of three monkeys, two blocks of trials following injection) was “altered saccadic latency” and the “number of premature saccades” value ([1]; 0.25 mg/kg i.m., group data, vs saline) was “strongly and significantly reduced”. The “average premature saccade latency” value ([1]; 0.25 mg/kg i.m., saccades with latency <100 ms, group data) was “not affected”, the “Premature saccades (number)” value ([1]; Monkey L, 0.25 mg/kg i.m.) was 408 and the “Premature saccades (percentage of total)” value ([1]; Monkey L, 0.25 mg/kg i.m.) was “(21%)”. For the same compound, the “Visually guided saccades (number)” value ([1]; Monkey L, 0.25 mg/kg i.m.) was 1520, the “Visually guided saccades (percentage of total)” value ([1]; Monkey L, 0.25 mg/kg i.m.) was “(79%” and the saccade amplitude ([1]; Monkey L, 0.25 mg/kg i.m., control 5.7±0.05 deg) was 5.2±0.05 deg. For the same compound, the “decrease of the proportion of valid trials” value ([1]; Monkey L, after ketamine injection 0.25 mg/kg i.m.) was ~5%, the “Premature saccades (number)” value ([1]; Monkey S, 0.25 mg/kg i.m.) was 21 and the “Premature saccades (percentage of total)” value ([1]; Monkey S, 0.25 mg/kg i.m.) was “(7%)”. The “Visually guided saccades (number)” value ([1]; Monkey S, 0.25 mg/kg i.m.) was 2939, the “Visually guided saccades (percentage of total)” value ([1]; Monkey S, 0.25 mg/kg i.m.) was “(93%)” and the “increase of the proportion of valid trials” value ([1]; Monkey S, after ketamine injection 0.25 mg/kg i.m.) was ~10%. For the same compound, the “Premature saccades (number)” value ([1]; Monkey Y, 0.25 mg/kg i.m.) was 150, the “Premature saccades (percentage of total)” value ([1]; Monkey Y, 0.25 mg/kg i.m.) was “(6%)” and the “Visually guided saccades (number)” value ([1]; Monkey Y, 0.25 mg/kg i.m.) was 2537. For the same compound, the “Visually guided saccades (percentage of total)” value ([1]; Monkey Y, 0.25 mg/kg i.m.) was “(94%)”, the saccade amplitude ([1]; Monkey Y, 0.25 mg/kg i.m., control 5.7±0.03 deg) was 6.2±0.04 deg and the “proportion of valid trials” value ([1]; Monkey Y, after ketamine injection 0.25 mg/kg i.m.) was “unchanged”. For the same compound, the “premature saccades after single injection (saccadic latency vs trial number)” value ([1]; Monkey Y, single injection) was “sharp decrease of premature saccades”, the “trials after injection until the number of early anticipatory saccades was strongly reduced” value ([1]; Monkey Y, single injection 0.25 mg/kg i.m.) was “Approximately 100 trials” and the “return of premature saccades frequency to control levels” value ([1]; Monkey Y, single injection 0.25 mg/kg i.m., blocks of 200 trials) was “Only during the third block following injection”. The “trials until cumulated sums of latencies of control and ketamine diverged” value ([1]; Monkeys Y and L, 13 injections, 0.25 mg/kg i.m.) was “approximately 75 trials”, the “Premature saccades (number)” value [1, 4] was 579 and the “Visually guided saccades (number)” value [1, 4] was 6996. For the same compound, the “time for ketamine to affect saccade latency” value ([1]; after the onset of the second block of trials, single trial 3300 ms on average) was “approximately 4 minutes”, the “average difference in the latency of visually-guided saccade between conditions” value ([1]; ketamine 0.25 mg/kg i.m. vs saline, saccades with latency >100 ms, group data) was “approx. 10 ms” and the “saccade amplitude, group data” value ([1]; monkeys L and Y, 0.25 mg/kg i.m., 0.25 mg/kg) was “did not reduce saccade amplitude”. The “saccade amplitude, group data” value ([1]; monkeys L and Y, 0.25 mg/kg i.m., listed as Ketamine, 0.25 mg/kg) was “modestly reduced saccadic amplitude”, the saccade amplitude changes ([1]; monkeys L and Y, ketamine vs control) was ~10% and the “proportion of valid trials, group level” value ([1]; three monkeys, 0.25 mg/kg i.m.) was “did not statistically alter the proportion of valid trials”. For the same compound, the “spontaneous nystagmus or centripetal drift of the eye” value [2] was “could be observed with higher doses”, the “activity of premotor saccadic neurons” value ([3]; two animals) was “decreases the activity of premotor saccadic neurons” and the “average neuronal activity of movement-related SEF neurons after target appearance” value ([3]; 30 neurons) was “reduces activity after target appearance”. The “average neuronal activity (spike density) of movement-related SEF neurons during the delay period” value ([3]; 30 neurons, delays 400-1900 ms) was “reduces neuronal activity during the delay period”, the “average neuronal activity of fixation units/neurons” value [3] was “increases the activity of fixation neurons” and the “average neuronal activity of fixation units/neurons” value ([3]; listed as Ketamine) was “increased the fixation, delay and initial saccadic period”.
